According to US20110045101A1, “FUNGICIDAL SUBSTITUTED AZOLES” (E.I. Du Pont De Nemours and Company, priority 2009, published 2011):
Marks after values point to notes of the source that are not given here.

How the values were obtained:
Format in all cases: in vivo
Settings in all cases: 100 = 100% disease control
[1] = tested on: Botrytis cinerea; assay: Test C: tomato Botrytis on tomato seedlings, sprayed the day before inoculation, visual disease rating
Procedure, shortened: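 Spray to run-off on tomato seedlings; test conc. 200 ppm (≈500 g/ha), some entries 40 ppm. Formulation: acetone 3% of final vol., then acetone/water 50:50 + 250 ppm polyhydric alcohol ester surfactant.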

[2] = tested on: Alternaria solani; assay: Test D: tomato early blight, sprayed the day before inoculation, visual disease rating
Procedure, shortened: (§1)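 Spray suspension: acetone 3% of final volume, then 50/50 acetone/water plus 250 ppm Trem® 014. Applied to run-off on seedlings at 200 ppm (≈500 g/ha); starred entries tested at 40 ppm.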

[3] = tested on: Septoria nodorum; assay: Test F: wheat glume blotch on wheat seedlings, sprayed the day before inoculation, visual disease rating
Procedure, shortened: as §1

[4] = tested on: Septoria tritici; assay: Test G: wheat leaf blotch on wheat seedlings, sprayed the day before inoculation, visual disease rating
Procedure, shortened: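 Spray to run-off, 200 ppm (≈500 g/ha; starred = 40 ppm), acetone/water 50/50 + 250 ppm Trem® 014. Spore inoculation +1 d. 24° C saturated 48 h → 20° C 19 d. Visual rating.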

[5] = tested on: Puccinia recondita f. sp. tritici; assay: Test I: wheat leaf rust on wheat seedlings, sprayed the day before inoculation, visual disease rating
Procedure, shortened: as §1

[6] = tested on: Erysiphe graminis f. sp. tritici; assay: Test J: wheat powdery mildew on wheat seedlings, sprayed the day before inoculation, visual disease rating
Procedure, shortened: as §1

[7] = 200 ppm, 0 = no control relative to controls
[8] = 40 ppm (marked *), 0 = no control

| SMILES | Test C disease control rating [1, 7] [%] | Test D disease control rating [2, 7] [%] | Test F disease control rating [3, 7] [%] | Test G disease control rating [4, 7] [%] | Test I disease control rating [5, 7] [%] | Test J disease control rating [6, 7] [%] | Test C disease control rating ([1]; 200 ppm, 0 = no control) [%] | Test D disease control rating ([2]; 200 ppm, 0 = no control) [%] | Test F disease control rating ([3]; 200 ppm, 0 = no control) [%] | Test G disease control rating ([4]; 200 ppm, 0 = no control) [%] | Test I disease control rating ([5]; 200 ppm, 0 = no control) [%] | Test J disease control rating ([6]; 200 ppm, 0 = no control) [%] | also measured |
| --- | --- | --- | --- | --- | --- | --- | --- | --- | --- | --- | --- | --- | --- |
| CCc1ccc(-n2c(Cl)nc(Cl)c2-c2c(F)ccc(OC)c2F)cc1 [compound 442] | 99 | 99 | 0 | 95 | 99 | 100 | – | – | – | – | – | – | – |
| Cc1nc(Cl)c(-c2c(F)cccc2F)n1Cc1cccc(Cl)c1 [compound 126] | 97 | 99 | 69 | 96 | 99 | 99 | – | – | – | – | – | – | – |
| COc1ccc(-c2c(Cl)nc(C)n2-c2ccc(Cl)cc2)c(F)c1C [compound 114] | 93 | 0 | 0 | 95 | 41 | 72 | – | – | – | – | – | – | – |
| Fc1cc(-n2c(Cl)nc(Cl)c2-c2ccncc2F)ccc1Cl [compound 455] | 99 | 95 | 0 | 95 | 99 | 68 | – | – | – | – | – | – | – |
| COc1cc(F)c(-c2c(C)ncn2-c2ccc(Cl)nc2)c(F)c1 [compound 254] | – | – | – | – | – | – | 100 | 100 | 0 | 95 | 99 | 98 | – |
| COc1cc(F)c(-c2c(Cl)nc(Br)n2-c2ccc(Cl)nc2)c(F)c1 [compound 729] | 100 | 100 | 99 | 99 | 100 | 100 | – | – | – | – | – | – | – |
| Cc1nc(Cl)n(-c2ccc(Cl)c(F)c2)c1-c1c(Cl)cncc1Cl [compound 262] | – | – | – | – | – | – | 99 | 99 | 69 | 96 | 100 | 100 | – |
| Fc1ccc(-n2c(Cl)nc(Cl)c2-c2ccc(F)cc2Cl)cc1 [compound 183] | – | – | – | – | – | – | – | – | – | – | – | – | Test C disease control rating [1, 8]: 99* %; Test D disease control rating [2, 8]: 91* %; Test F disease control rating [3, 8]: 0* %; Test G disease control rating [4, 8]: 85* %; Test I disease control rating [5, 8]: 66* %; Test J disease control rating [6, 8]: 48* % |
| Cc1cc(-c2cnc(Cl)n2-c2ccc(Cl)cc2)sc1CCl [compound 452] | 55 | 0 | 0 | 86 | 86 | 76 | – | – | – | – | – | – | – |
| COc1cc(F)c(-c2c(Cl)nc(Cl)n2-c2ccc(Cl)cc2)c(F)c1 [compound 239] | – | – | – | – | – | – | 100 | 100 | 100 | 96 | 99 | 100 | – |
| Cc1ccc(F)c(-c2c(Cl)nc(Br)n2-c2ccc(Cl)cc2)c1F [compound 105] | 98 | 99 | 94 | 94 | 99 | 100 | – | – | – | – | – | – | – |
| COc1cc(F)c(-c2c(C)nc(C)n2-c2ccc(Cl)c(F)c2)c(F)c1 [compound 44] | – | – | – | – | – | – | – | – | – | – | – | – | Test C disease control rating ([1]; 40 ppm (marked *)): 99* %; Test D disease control rating ([2]; 40 ppm (marked *)): 100* %; Test F disease control rating ([3]; 40 ppm (marked *)): 40* %; Test G disease control rating ([4]; 40 ppm (marked *)): 92* %; Test I disease control rating ([5]; 40 ppm (marked *)): 99* %; Test J disease control rating ([6]; 40 ppm (marked *)): 98* % |
| Cc1nc(Cl)c(-c2c(F)cc(F)cc2F)n1-c1ccc(F)cc1 [compound 167] | – | – | – | – | – | – | – | – | – | – | – | – | Test C disease control rating [1, 8]: 99* %; Test D disease control rating [2, 8]: 100* %; Test F disease control rating [3, 8]: 0* %; Test G disease control rating [4, 8]: 95* %; Test I disease control rating [5, 8]: 0* %; Test J disease control rating [6, 8]: 98* % |
| Cc1ncn(-c2ccc(Cl)c(F)c2)c1-c1ccccn1 [compound 251] | – | – | – | – | – | – | 99 | 0 | 0 | 81 | 9 | 0 | – |
| Cc1nn(C)c(-c2c(F)cc(F)cc2F)c1-c1ccc(Cl)c(F)c1 [compound 71] | 47 | 33 | 0 | 2 | 9 | 56 | – | – | – | – | – | – | – |
| Fc1ccc(F)c(-c2c(Cl)nc(Br)n2-c2ccc(Cl)cc2)c1 [compound 85] | 73 | 100 | 11 | 98 | 96 | 100 | – | – | – | – | – | – | – |
| Cc1nc(Cl)c(-c2c(F)cccc2F)n1-c1ccc(F)cc1 [compound 83] | 97 | 100 | 99 | 98 | 100 | 100 | – | – | – | – | – | – | – |
| COc1cc(Cl)cc(F)c1-c1c(Cl)ncn1-c1ccc(Cl)cc1 [compound 133] | 0 | 0 | 0 | 0 | 0 | 0 | – | – | – | – | – | – | – |
| Fc1cc(-n2c(Cl)nc(Cl)c2-c2c(F)cccc2F)ccc1Cl [compound 225] | – | – | – | – | – | – | 96 | 100 | 0 | 98 | 99 | 100 | – |
| COc1cc(F)c(-c2c(C)nc(Cl)n2-c2ccc(Cl)nc2)c(F)c1 [compound 263] | – | – | – | – | – | – | 99 | 100 | 100 | 95 | 100 | 100 | – |
| Cc1ccc(-n2c(Br)nc(Cl)c2-c2c(F)ccc(F)c2F)cc1C [compound 224] | – | – | – | – | – | – | 93 | 51 | 0 | 90 | 80 | 98 | – |
| Fc1cccc(F)c1-c1c(Cl)nc(Cl)n1-c1cccc(Cl)c1 [compound 222] | – | – | – | – | – | – | 99 | 99 | 0 | 99 | 97 | 98 | – |
| COc1ccc(F)c(-c2c(Cl)nc(C)n2-c2ccc(Cl)cc2)c1F [compound 122] | 98 | 100 | 100 | 96 | 100 | 100 | – | – | – | – | – | – | – |
